Reference: patent publication US9862717B2 (Merck Patent GmbH, priority 2014, dated 2018)
Read-outs that look alike come from different tables or passages of the source.

Molecular target: T1, CDK8/CycC (Homo sapiens, UniProt P49336)
T1 construct: purchased Invitrogen PV4402
Experiment: FRET based Lanthascreen binding competition assay for CDK8 inhibitory activity
Conditions: CDK8 co-expressed with CycC, class symbols
Text: Biochemical Assay for CDK8 Inhibitory Activity FRET based Lanthascreen binding competition assay: A dye-labeled ATP competitive probe served as a FRET acceptor upon binding to CDK8 labeled with a strepavidin -Eu-chelate (via a biotinylated anti His antibody). The result was a fluorescence signal at 647 nm. In case this probe was competed by an inhibitor, such a signal cannot be generated any more. The CDK8 used for this assay was a protein co-expressed with CycC. The assay procedure for an assay in a 1536 well plate was performed according to the following: 2 μL CDK8/biotin-anti-His Ab/SA-Eu mix in Assay buffer were pipetted into the wells of a micro plate. 1 μL compound in 20 mM Hepes buffer/5% DMSO was added. The plate was shaken for 30 sec and incubated for 20 min at RT. 2 μL Alexa647-probe in assay buffer were added. The plate was shaken for 30 sec again and incubated for 60 min at RT in the dark. Then the plate was read out on a Perkin Elmer Envision (mode LANCE/TRF, excitation 340 nm emission 650 nm). […] The readouts were fitted to IC50 curves using Genedata Condoseo.

T1 sequence (P49336 whole entry): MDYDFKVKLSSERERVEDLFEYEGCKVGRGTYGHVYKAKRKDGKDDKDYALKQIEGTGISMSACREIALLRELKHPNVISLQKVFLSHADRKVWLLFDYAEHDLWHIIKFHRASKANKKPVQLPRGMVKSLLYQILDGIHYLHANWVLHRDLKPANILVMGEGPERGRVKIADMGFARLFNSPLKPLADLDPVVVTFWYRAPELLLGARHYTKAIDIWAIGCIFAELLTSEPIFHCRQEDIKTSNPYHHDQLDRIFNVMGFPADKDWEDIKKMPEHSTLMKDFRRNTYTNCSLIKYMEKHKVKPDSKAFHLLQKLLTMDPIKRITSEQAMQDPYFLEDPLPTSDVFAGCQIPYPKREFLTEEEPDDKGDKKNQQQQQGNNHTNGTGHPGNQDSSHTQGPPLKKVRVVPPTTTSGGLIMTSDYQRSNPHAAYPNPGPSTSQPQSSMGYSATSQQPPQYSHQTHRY
T1 sequence (P24863 whole entry partner): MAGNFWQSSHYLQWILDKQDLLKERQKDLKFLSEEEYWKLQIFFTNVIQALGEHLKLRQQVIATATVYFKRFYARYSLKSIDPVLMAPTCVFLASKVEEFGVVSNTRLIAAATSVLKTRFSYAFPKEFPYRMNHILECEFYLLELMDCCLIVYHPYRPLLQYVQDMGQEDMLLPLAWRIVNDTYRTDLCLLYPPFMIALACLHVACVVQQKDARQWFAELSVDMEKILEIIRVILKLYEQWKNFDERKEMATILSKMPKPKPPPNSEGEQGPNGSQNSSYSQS

IC50 (read-out: IC50)	IC50 (IC50 [μM])	SMILES
< 0.01 µM	–	CCCc1n[nH]c2ccc(C(=O)N3CCCC3c3ccc(Br)cc3)cc12 (racemic) [compound 4, [2-(4-Bromo-phenyl)-pyrrolidin-1-yl]-(3-propyl-1H-indazol-5-yl)-methanone]
–	< 0.01 µM	Cc1n[nH]c2ncc(C(=O)N3CCCC3c3ccc(Cl)cc3)cc12 (racemic) [compound 10, [2-(4-Chloro-phenyl)-pyrrolidin-1-yl]-(3-methyl-1H-pyrazolo[3,4-b]pyridin-5-yl)-methanone]
–	< 0.01 µM	Nc1n[nH]c2ccc(C(=O)N3CCCC3c3ccc(Cl)cc3)cc12 (racemic) [compound 78, (3-Amino-1H-indazol-5-yl)-[2-(4-chloro-phenyl)-pyrrolidin-1-yl]-methanone]
0.01 to 0.1 µM	–	O=C(c1ccc2[nH]ncc2c1)N1CCCC1c1ccc(Br)cc1 (racemic) [compound 154]
0.01 to 0.1 µM	–	O=C(c1cnc2[nH]nc(C(F)(F)F)c2c1)N1CCCC1c1ccc(Cl)cc1 (racemic) [compound 177, [2-(4-Chloro-phenyl)-pyrrolidin-1-yl]-(3-trifluoromethyl-1H-pyrazolo[3,4-b]pyridin-5-yl)-methanone]
0.01 to 0.1 µM	–	CC(C)c1ccc(C2CCCN2C(=O)c2ccc3[nH]nc(N)c3c2)cc1 (racemic) [compound 191, (3-Amino-1H-indazol-5-yl)-[2-(4-isopropyl-phenyl)-pyrrolidin-1-yl]-methanone]
< 0.01 µM	–	Cc1n[nH]c2ncc(C(=O)N3CCCC3c3ccc(C(C)C)cc3)cc12 (racemic) [compound 192, [2-(4-Isopropyl-phenyl)-pyrrolidin-1-yl]-(3-methyl-1H-pyrazolo[3,4-b]pyridin-5-yl)-methanone]
1 to 10 µM	–	Cc1n[nH]c2ncc(C(=O)N3CCC(O)(c4ccccc4)C3)cc12 (racemic) [compound 193, (3-Hydroxy-3-phenyl-pyrrolidin-1-yl)-(3-methyl-1H-pyrazolo[3,4-b]pyridin-5-yl)-methanone]
0.01 to 0.1 µM	–	CC(=O)N[C@@H]1CN(C(=O)c2ccc3[nH]nc(N)c3c2)C[C@H]1c1ccc(Cl)cc1 (racemic) [compound 263, N-[(3S,4R)-1-(3-Amino-1H-indazole-5-carbonyl)-4-(4-chloro-phenyl)-pyrrolidin-3-yl]-acetamide (racemic)]
0.01 to 0.1 µM	–	CC(=O)N[C@@H]1CN(C(=O)c2cnc3[nH]nc(C)c3c2)C[C@H]1c1ccc(Cl)cc1 (racemic) [compound 264, N-[(3S,4R)-4-(4-Chloro-phenyl)-1-(3-methyl-1H-pyrazolo[3,4-b]pyridine-5-carbonyl)-pyrrolidin-3-yl]-acetamide (racemic)]
0.01 to 0.1 µM	–	Nc1n[nH]c2ccc(C(=O)N3CCCCC3Cc3ccccc3)cc12 (stereo in doubt) [compound 86, (3-Amino-1H-indazol-5-yl)-((S)-2-benzyl-piperidin-1-yl)-methanone]
0.1 to 1 µM	–	Nc1n[nH]c2ccc(C(=O)N3CCCCC3Cc3ccccc3)cc12 (stereo in doubt) [compound 89, (3-Amino-1H-indazol-5-yl)-((R)-2-benzyl-piperidin-1-yl)-methanone]
0.01 to 0.1 µM	–	Cc1n[nH]c2ncc(C(=O)N3CC[C@H](C)C3c3ccc(C(F)(F)F)cc3)cc12 (stereo in doubt) [compound 171, (3-Methyl-1H-pyrazolo[3,4-b]pyridin-5-yl)-[(2S,3S)-3-methyl-2-(4-trifluoromethyl-phenyl)-pyrrolidin-1-yl]-methanone]
< 0.01 µM	–	O=C(c1cnc2[nH]nc(C(F)(F)F)c2c1)N1CCC[C@H]1c1ccc(Cl)cc1 (stereo in doubt) [compound 180, [(S)-2-(4-Chloro-phenyl)-pyrrolidin-1-yl]-(3-trifluoromethyl-1H-pyrazolo[3,4-b]pyridin-5-yl)-methanone]
0.1 to 1 µM	–	O=C(c1cnc2[nH]nc(C(F)(F)F)c2c1)N1CCC[C@@H]1c1ccc(Cl)cc1 (stereo in doubt) [compound 181, [(R)-2-(4-Chloro-phenyl)-pyrrolidin-1-yl]-(3-trifluoromethyl-1H-pyrazolo[3,4-b]pyridin-5-yl)-methanone]
1 to 10 µM	–	Cc1n[nH]c2ncc(C(=O)N3CCC(O)(c4ccccc4)C3)cc12 (stereo in doubt) [compound 199, ((R)-3-Hydroxy-3-phenyl-pyrrolidin-1-yl)-(3-methyl-1H-pyrazolo[3,4-b]pyridin-5-yl)-methanone]
< 0.01 µM	–	Cc1n[nH]c2ncc(C(=O)N3CCCC3c3ccc(Br)cc3)cc12 (centres unmarked) [compound 1, [2-(4-Bromo-phenyl)-pyrrolidin-1-yl]-(3-methyl-1H-pyrazolo[3,4-b]pyridin-5-yl)-methanone]
< 0.01 µM	–	Cc1n[nH]c2ncc(C(=O)N3CCC[C@H]3c3ccc(Br)cc3)cc12 [compound 2, [(S)-2-(4-Bromo-phenyl)-pyrrolidin-1-yl]-(3-methyl-1H-pyrazolo[3,4-b]pyridin-5-yl)-methanone]
0.1 to 1 µM	–	Cc1n[nH]c2ncc(C(=O)N3CCC[C@@H]3c3ccc(Br)cc3)cc12 [compound 3, [(R)-2-(4-Bromo-phenyl)-pyrrolidin-1-yl]-(3-methyl-1H-pyrazolo[3,4-b]pyridin-5-yl)-methanone]
< 0.01 µM	–	CCCc1n[nH]c2ccc(C(=O)N3CCC[C@H]3c3ccc(Br)cc3)cc12 [compound 5, [(S)-2-(4-Bromo-phenyl)-pyrrolidin-1-yl]-(3-propyl-1H-indazol-5-yl)-methanone]
0.1 to 1 µM	–	CCCc1n[nH]c2ccc(C(=O)N3CCC[C@@H]3c3ccc(Br)cc3)cc12 [compound 6, [(R)-2-(4-bromo-phenyl)-pyrrolidin-1-yl]-(3-propyl-1H-indazol-5-yl)-methanone]
< 0.01 µM	–	CCCc1n[nH]c2ccc(C(=O)N3CCCC3c3ccc(Cl)cc3)cc12 (centres unmarked) [compound 9, [2-(4-Chloro-phenyl)-pyrrolidin-1-yl]-(3-propyl-1H-indazol-5-yl)-methanone]
< 0.01 µM	–	CCCc1n[nH]c2ccc(C(=O)N3CCC[C@H]3c3ccc(Cl)cc3)cc12 [compound 11, [(S)-2-(4-Chloro-phenyl)-pyrrolidin-1-yl]-(3-propyl-1H-indazol-5-yl)-methanone]
0.1 to 1 µM	–	CCCc1n[nH]c2ccc(C(=O)N3CCC[C@@H]3c3ccc(Cl)cc3)cc12 [compound 12, [(R)-2-(4-Chloro-phenyl)-pyrrolidin-1-yl]-(3-propyl-1H-indazol-5-yl)-methanone]
–	< 0.01 µM	Cc1n[nH]c2ncc(C(=O)N3CCC[C@H]3c3ccc(Cl)cc3)cc12 [compound 13]
–	0.1 to 1 µM	Cc1n[nH]c2ncc(C(=O)N3CCC[C@@H]3c3ccc(Cl)cc3)cc12 [compound 14, [(R)-2-(4-Chloro-phenyl)-pyrrolidin-1-yl]-(3-methyl-1H-pyrazolo[3,4-b]pyridin-5-yl)-methanone]
0.01 to 0.1 µM	–	Cc1n[nH]c2ncc(C(=O)N3CCCCC3c3ccc(F)cc3)cc12 (centres unmarked) [compound 15, [2-(4-Fluoro-phenyl)-piperidin-1-yl]-(3-methyl-1H-pyrazolo[3,4-b]pyridin-5-yl)-methanone]
0.01 to 0.1 µM	–	Cc1n[nH]c2ncc(C(=O)N3CCCC[C@H]3c3ccc(F)cc3)cc12 [compound 17, [(S)-2-(4-Fluoro-phenyl)-piperidin-1-yl]-(3-methyl-1H-pyrazolo[3,4-b]pyridin-5-yl)-methanone]
0.01 to 0.1 µM	–	Cc1n[nH]c2ncc(C(=O)N3CCCCC3c3ccccc3)cc12 (centres unmarked) [compound 18, (3-Methyl-1H-pyrazolo[3,4-b]pyridin-5-yl)-(2-phenyl-piperidin-1-yl)-methanone]
